Measurements reported in patent US20090036437A1, “PHARMACEUTICAL COMPOSITION COMPRISING PHENOXAZINIUM COMPOUND AS AN ACTIVE INGREDIENT” (priority 2005, published 2009).

What was measured:
[1] = in vitro growth-inhibiting assay of rat L6 cells; type: cell-based; conditions: rat; Table 8; read-out: 50% growth-inhibiting concentration (nM) cytotoxicity L6
Experimental: Rat L6 cell (rat skeletal myoblast cell) was cultured in RPMI-1640 culture medium supplemented with 1% of L-glutamine (200 mM) and fetal calf serum (10%) under 5% CO2 concentration at 37° C. A test sample was prepared by dissolving the test compounds according to the present invention and a positive control drug in DMSO to a predetermined concentration. After pre-culture had been finished, the culture medium containing the cells in a logarithmic phase was placed into each well of a 96-well culture plate, and the test sample comprising the predetermined amount of the test compound, and DMSO without the test compound were added to the wells in duplicate.
(§1) After incubation of the culture plate for 72 hours in an incubator, a growth-inhibiting activity was assayed as follows. Alamar Blue aqueous solution (10 μL) was added to each well followed by a further two-hour culture. The culture plate was then attached to a fluorescence micro titer plate reader (Spectramax Gemeni XS; U.S. Molecular Device Co.), and the intensity of fluorescence at 588 nm was detected with an excitation wave length of 536 nm. A residual ratio of L6 cells was calculated with respect to a group treated with the test sample and a control group. A growth-inhibiting ratio for L6 cells was then calculated from the resulting residual ratio in accordance with the following equation to determine 50% growth-inhibiting concentration (EC50).
Growth-inhibiting ratio (%)=[1−(C−A)/(B−A)]×100 • A: Initial number of cells; • B: Number of the cells in the control after 3 days; and • C: Number of the cells treated with the test sample after 3 days Determination of Pharmaceutical effect for Chloroquine-Resistant Malaria

[2] = tested on: Trypanosoma brucei rhodensiense (STIB 900 strain); assay: in vitro growth-inhibiting screening assay, protozoa of African trypanosomiasis; type: cell-based
Experimental: This test was done using a trypomastigote of the protozoa of Trypanosoma brucei rhodensiense (STIB 900 strain) ranging in blood stream. MEM medium sterilized by filtration was supplemented with 25 mM of N-2-hydroxyethylpiperazine-2-ethanesulfonic acid (HEPES), 1 g/L of glucose, 1% of MEM non-essential amino acids, 0.2 mM of 2-mercaptoethanol, 2 mM of sodium pyruvate, 1 mM of hypoxathine and 15% of heat-treated horse serum. The protozoa were cultured under CO2 concentration of 5%, at 37° C.
A test sample was prepared by dissolving the test compounds according to the present invention and a positive control drug (Melarsoprol) in DMSO to a predetermined concentration. Culture medium containing the protozoa of 8×10^3, and the test sample comprising the predetermined amount of the test compound, and DMSO without the test compound were added into each well of 96-well culture plate to a final volume of 100 μL in duplicate.
as §1, with “Co.),” for “Co.), and”, “with” for “with an”, “nm to calculate an infection” for “nm. A residual”, “the protozoa” for “L6 cells was calculated”, “ratio” for “ratio for L6 cells”, “infection” for “residual”
Growth-inhibiting ratio (%)=[1−(b−a)/(c−a)]×100 • a: Initial infection ratio; • b: Infection ratio of the test sample group; and • c: Infection ratio of the control group.
A selective toxicity coefficient, which is used as an index for the selective toxicity for the protozoa of African trypanosomiasis, was calculated by the following equation, and the pharmaceutical effect was determined.
Selective toxicity coefficient=(EC50 value of the test sample for rat L6 cell)/(EC50 value of the test sample for the protozoa of African typanosomiasis)

What does the source list for `Nc1nc(N)nc(Nc2ccc([As]3SCC(CO)S3)cc2)n1` (stereo not drawn) [Melarsoprol, reference compound]?
EC50 at 72 h [1]: 7800 nM; Selective toxicity ([2]; EC50 rat L6 cell / EC50 protozoa of African trypanosomiasis): 1300; EC50 ([2]; Trypanosoma brucei, STIB900, 72 h, read-out: 50% growth-inhibiting concentration (nM) Trypanosoma brucei rhod.): 6 nM
